Results reported in patent publication US9073855B2, “BCL-2 selective apoptosis-inducing agents for the treatment of cancer and immune diseases” (AbbVie Inc., priority 2008, dated 2015).

Experiments:
GST-Bcl-2 = GST-Bcl-2 (Homo sapiens, UniProt P10415); experiment: TR-FRET binding assay, GST-Bcl-2 with F-Bak peptide probe; conditions: for Ki: TR-FRET Binding Affinity, GST-Bcl-2, F-Bak peptide probe; for Binding selectivity ratio (Bcl-XL Ki/Bcl-2 Ki): ratio of TR-FRET Ki values, Bcl-XL over Bcl-2
How it was run: (§1)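 Displacement of a fluorescein-labelled Bak peptide from the GST-tagged protein was followed by time-resolved FRET with a terbium anti-GST donor after 3 h incubation at room temperature. Inhibition constants were calculated with Wang's equation.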

GST-Bcl-XL = GST-Bcl-XL (Homo sapiens, UniProt Q07817); experiment: TR-FRET binding assay, GST-Bcl-XL with F-Bak peptide probe; conditions: TR-FRET Binding Affinity, GST-Bcl-XL, F-Bak peptide probe
How it was run: as §1

GST-Bcl-XL, sequence (Q07817 whole entry): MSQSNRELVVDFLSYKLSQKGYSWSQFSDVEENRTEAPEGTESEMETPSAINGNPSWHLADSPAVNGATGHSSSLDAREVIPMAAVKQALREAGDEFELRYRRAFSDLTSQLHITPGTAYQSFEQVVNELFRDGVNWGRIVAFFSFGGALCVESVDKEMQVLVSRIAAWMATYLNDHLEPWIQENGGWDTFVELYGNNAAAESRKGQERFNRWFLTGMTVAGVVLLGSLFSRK
GST-Bcl-2, sequence (P10415 whole entry): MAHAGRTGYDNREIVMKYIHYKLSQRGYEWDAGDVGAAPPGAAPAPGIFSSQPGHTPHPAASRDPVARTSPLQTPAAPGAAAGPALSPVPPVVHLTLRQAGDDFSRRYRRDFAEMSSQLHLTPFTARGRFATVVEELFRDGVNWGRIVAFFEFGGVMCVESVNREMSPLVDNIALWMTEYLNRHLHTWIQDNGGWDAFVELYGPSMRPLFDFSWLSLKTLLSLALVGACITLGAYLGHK

| SMILES | Ki (GST-Bcl-2) | Binding selectivity ratio (Bcl-XL Ki/Bcl-2 Ki) (GST-Bcl-2) | Ki (GST-Bcl-XL) |
| --- | --- | --- | --- |
| CC1(C)CCC(CN2CCN(c3ccc(C(=O)NS(=O)(=O)c4cnc(OCCN5CCOCC5)c(C#N)c4)c(Oc4cccc5[nH]ccc45)c3)CC2)=C(c2ccc(Cl)cc2)C1 [Example 392, 4-(4-{[2-(4-chlorophenyl)-4,4-dimethylcyclohex-1-en-1-yl]methyl}piperazin-1-yl)-N-{[5-cyano-6-(2-morpholin-4-ylethoxy)pyridin-3-yl]sulfonyl}-2-(1H-indol-4-yloxy)benzamide] | 0.38 nM | 320.2 | 122 nM |
| CC1(C)CCC(CN2CCN(c3ccc(C(=O)NS(=O)(=O)c4cnc(OCC5(F)CCOCC5)c(C#N)c4)c(Oc4cccc5[nH]ccc45)c3)CC2)=C(c2ccc(Cl)cc2)C1 [Example 393, 4-(4-{[2-(4-chlorophenyl)-4,4-dimethylcyclohex-1-en-1-yl]methyl}piperazin-1-yl)-N-({5-cyano-6-[(4-fluorotetrahydro-2H-pyran-4-yl)methoxy]pyridin-3-yl}sulfonyl)-2-(1H-indol-4-yloxy)benzamide] | 0.083 nM | 1109.6 | 92.1 nM |
| COc1ccc(Nc2ccc(S(=O)(=O)NC(=O)c3ccc(N4CCN(CC5=C(c6ccc(Cl)cc6)CC(C)(C)CC5)CC4)cc3Oc3ccc4[nH]ccc4c3)cc2[N+](=O)[O-])cc1O [Example 394, 4-(4-{[2-(4-chlorophenyl)-4,4-dimethylcyclohex-1-en-1-yl]methyl}piperazin-1-yl)-N-({4-[(3-hydroxy-4-methoxyphenyl)amino]-3-nitrophenyl}sulfonyl)-2-(1H-indol-5-yloxy)benzamide] | 2.51 nM | >263262.9 | > 660000 nM |
| CN1CCC(Nc2ccc(S(=O)(=O)NC(=O)c3ccc(N4CCN(CC5=C(c6ccc(Cl)cc6)CC(C)(C)CC5)CC4)cc3Oc3cccc4c3CCN4)cc2[N+](=O)[O-])CC1 [Example 395, 4-(4-{[2-(4-chlorophenyl)-4,4-dimethylcyclohex-1-en-1-yl]methyl}piperazin-1-yl)-2-(2,3-dihydro-1H-indol-4-yloxy)-N-({4-[(1-methylpiperidin-4-yl)amino]-3-nitrophenyl}sulfonyl)benzamide] | 0.798 nM | 23.6 | 18.8 nM |
| CC1(C)CCC(CN2CCN(c3ccc(C(=O)NS(=O)(=O)c4ccc(NC5CCN(C6CCOCC6)CC5)c([N+](=O)[O-])c4)c(Nc4cccnc4)c3)CC2)=C(c2ccc(Cl)cc2)C1 [Example 397, 4-(4-{[2-(4-chlorophenyl)-4,4-dimethylcyclohex-1-en-1-yl]methyl}piperazin-1-yl)-N-({3-nitro-4-[(1-tetrahydro-2H-pyran-4-ylpiperidin-4-yl)amino]phenyl}sulfonyl)-2-(pyridin-3-ylamino)benzamide] | 23 nM | >28730.6 | > 660000 nM |
| CC1(C)CCC(CN2CCN(c3ccc(C(=O)NS(=O)(=O)c4cnc(NCC5(F)CCOCC5)c(Cl)c4)c(Oc4cccc5[nH]ncc45)c3)CC2)=C(c2ccc(Cl)cc2)C1 [Example 413, N-[(5-chloro-6-{[(4-fluorotetrahydro-2H-pyran-4-yl)methyl]amino}pyridin-3-yl)sulfonyl]-4-(4-{[2-(4-chlorophenyl)-4,4-dimethylcyclohex-1-en-1-yl]methyl}piperazin-1-yl)-2-(1H-indazol-4-yloxy)benzamide] | 0.12 nM | 803.8 | 96.8 nM |
| CO[C@H]1CC[C@H](COc2ncc(S(=O)(=O)NC(=O)c3ccc(N4CCN(CC5=C(c6ccc(Cl)cc6)CC(C)(C)CC5)CC4)cc3Oc3cccc4[nH]ncc34)cc2Cl)CC1 [Example 414, Trans-N-({5-chloro-6-[(4-methoxycyclohexyl)methoxy]pyridin-3-yl}sulfonyl)-4-(4-{[2-(4-chlorophenyl)-4,4-dimethylcyclohex-1-en-1-yl]methyl}piperazin-1-yl)-2-(1H-indazol-4-yloxy)benzamide] | 0.007 nM | – | 95.6 nM |
| CC1(C)CCC(CN2CCN(c3ccc(C(=O)NS(=O)(=O)c4ccc(NCC5CN(CC(F)F)CCO5)c([N+](=O)[O-])c4)c(Oc4cccc5[nH]cnc45)c3)CC2)=C(c2ccc(Cl)cc2)C1 (stereo not shown) [Example 415, 2-(1H-benzimidazol-4-yloxy)-4-(4-{[2-(4-chlorophenyl)-4,4-dimethylcyclohex-1-en-1-yl]methyl}piperazin-1-yl)-N-{[4-({[4-(2,2-difluoroethyl)morpholin-2-yl]methyl}amino)-3-nitrophenyl]sulfonyl}benzamide] | 0.002 nM | 17326.9 | 26.9 nM |
| CC1(C)CCC(CN2CCN(c3ccc(C(=O)NS(=O)(=O)c4cnc(OCC5(F)CCOCC5)c(F)c4)c(Oc4cccc5[nH]ncc45)c3)CC2)=C(c2ccc(Cl)cc2)C1 [Example 416, 4-(4-{[2-(4-chlorophenyl)-4,4-dimethylcyclohex-1-en-1-yl]methyl}piperazin-1-yl)-N-({5-fluoro-6-[(4-fluorotetrahydro-2H-pyran-4-yl)methoxy]pyridin-3-yl}sulfonyl)-2-(1H-indazol-4-yloxy)benzamide] | 0.023 nM | – | 59.1 nM |
| CC1(C)CCC(CN2CCN(c3ccc(C(=O)NS(=O)(=O)c4ccc(NC5CCN(C6CCOCC6)CC5)c([N+](=O)[O-])c4)c(Oc4cccc5[nH]cnc45)c3)CC2)=C(c2ccc(Cl)cc2)C1 [Example 417, 2-(1H-benzimidazol-4-yloxy)-4-(4-{[2-(4-chlorophenyl)-4,4-dimethylcyclohex-1-en-1-yl]methyl}piperazin-1-yl)-N-({3-nitro-4-[(1-tetrahydro-2H-pyran-4-ylpiperidin-4-yl)amino]phenyl}sulfonyl)benzamide] | 0.046 nM | 87.1 | 3.99 nM |
| CN1CCC(Nc2ccc(S(=O)(=O)NC(=O)c3ccc(N4CCN(CC5=C(c6ccc(Cl)cc6)CC(C)(C)CC5)CC4)cc3Oc3cccc4[nH]cnc34)cc2[N+](=O)[O-])CC1 [Example 418, 2-(1H-benzimidazol-4-yloxy)-4-(4-{[2-(4-chlorophenyl)-4,4-dimethylcyclohex-1-en-1-yl]methyl}piperazin-1-yl)-N-({4-[(1-methylpiperidin-4-yl)amino]-3-nitrophenyl}sulfonyl)benzamide] | 0.004 nM | 404.7 | 1.57 nM |
| CC1(C)CCC(CN2CCN(c3ccc(C(=O)NS(=O)(=O)c4cnc(OCC5(F)CCN(CC#N)CC5)c(Cl)c4)c(Oc4cccc5[nH]ncc45)c3)CC2)=C(c2ccc(Cl)cc2)C1 [Example 419, N-[(5-chloro-6-{[1-(cyanomethyl)-4-fluoropiperidin-4-yl]methoxy}pyridin-3-yl)sulfonyl]-4-(4-{[2-(4-chlorophenyl)-4,4-dimethylcyclohex-1-en-1-yl]methyl}piperazin-1-yl)-2-(1H-indazol-4-yloxy)benzamide] | 0.197 nM | 1070.8 | 211 nM |
| CC1(C)CCC(CN2CCN(c3ccc(C(=O)NS(=O)(=O)c4cnc(OCC5CCOC5)c(Cl)c4)c(Oc4cccc5[nH]ncc45)c3)CC2)=C(c2ccc(Cl)cc2)C1 (stereo not shown) [Example 420, 4-(4-{[2-(4-chlorophenyl)-4,4-dimethylcyclohex-1-en-1-yl]methyl}piperazin-1-yl)-N-{[5-chloro-6-(tetrahydrofuran-3-ylmethoxy)pyridin-3-yl]sulfonyl}-2-(1H-indazol-4-yloxy)benzamide] | 0.063 nM | 1153.3 | 72.1 nM |
